{"source": "patent US10837957B2", "about": "“In vitro model for pathological or physiologic conditions” (HemoShear, LLC, priority 2012, dated 2020)", "key": {"hepatocytes [1]": {"tested_on": "hepatocytes", "experiment": "In vitro fatty liver model: lipid accumulation (Nile red, Oil Red O, total triglycerides)", "format": "cell-based, rat", "conditions": "1.5 μM pioglitazone, high insulin/glucose media", "protocol": "Samples were then blocked in 5% goat serum, 0.2% blotting grade non-fat dry milk blocker, and 1% BSA in PBS for 45 minutes. The samples were then washed thrice in 0.1% BSA in PBS and incubated with 1:5000 dilution of Nile red (1 mM stock), 1:1000 DRAQS (a fluorescent DNA dye; Cell Signalling), 1:500 ALEXA FLUOR 488 conjugated phalloidin (Life Technologies), and 1% BSA in PBS for thirty minutes and protected from light. The samples were washed in 0.1% BSA in PBS thrice for five minutes each and mounted on glass cover slips using PROLONG GOLD antifade mounting media (an antifade reagent; Invitrogen). The samples were imaged on a Nikon C1+ Confocal System microscope. Oil Red O Assay: Accumulation of intracellular lipids within hepatocytes was assessed by adapting and modifying a commercially available Steatosis Colorimetric Assay Kit (Cayman Chemical). At the end of the culture period, 2 cm^2 sized porous membrane segments containing the hepatocytes from devices under healthy and steatotic conditions were washed with PBS and fixed in 4% paraformaldehyde for 30 minutes. […] The solution was then transferred to clear 96-well plates and absorbance was read at 490-520 nm in a spectrophotometer. Measurement of Total Triglycerides: Triglyceride content was assessed using a commercially available colorimetric assay kit (Cayman Triglyceride Colorimetric Assay Kit, Cat #10010303). […]"}, "hepatocytes [2]": {"tested_on": "hepatocytes", "experiment": "In vitro fatty liver model: RT-PCR of metabolic and lipid pathway genes", "format": "cell-based, rat", "conditions": "1.5 μM pioglitazone, high insulin/glucose disease conditions"}}}
{"smiles": "CCc1ccc(CCOc2ccc(CC3SC(=O)NC3=O)cc2)nc1", "note": "(centres unmarked) [Pioglitazone, pioglitazone]", "values": [{"measurement": "total triglyceride content of hepatocytes", "setting": "hepatocytes [1]", "value": "reduced"}, {"measurement": "expression of metabolic genes such as Cyp3A2", "setting": "hepatocytes [2]", "value": "restored"}]}
